# Experimental data taken from patent publication EP4699605A1, “USE OF NOVEL COMPOUND FOR TREATING INTRACTABLE DISEASES” (YJ Cerapeutics Inc., priority 2023, dated 2024).
# Tests used:
# [1] = test system: nerve injury animal models (SCI, LSS, SNI); assay: Mechanical allodynia (von-Frey filaments, 50% paw withdrawal threshold) in nerve injury animal models; assay type: in vivo, Sprague-Dawley rats
# Protocol: To be used as a central nerve injury animal model, a traumatic spinal cord injury (SCI) model was prepared (FIG. 1A). Specifically, 230 to 250 g of male adult Sprague-Dawley rats were anesthetized by intraperitoneal injection of chloral hydrate (500 mg/kg), and then the back and neck regions were shaved, and the spinal cord under the back and neck regions was exposed without damaging the dura mater, and a laminectomy was performed at T9 to T10 levels. To stabilize the spine, the spinous processes of T8 and T11 were fixed, and the spine was damaged by free-falling a 10 g weight from a height of 25 mm using an NYU impactor onto the back surface of the exposed spinal cord and then the rats were left in a temperature and humidity-controlled chamber overnight while covering the muscles and skin. After surgery, the rats were subcutaneously injected with a supplement solution (5 ml, lactated ringer) and injected with antibiotics (gentamicin, 5 mg/kg, intramuscular injection) once daily for 5 days. The body weight, remaining food, and the weight of water were confirmed and recorded for all animals, and the bladder was emptied twice daily by passive bladder massage until reflex micturition was established. At this time, a Sham group was a group that was subjected to only laminectomy without damage.
# To be used as a peripheral nerve injury animal model, a lumbar spinal stenosis (LSS) model was prepared (FIG. 1B). Specifically, 260 to 280 g of adult male Sprague-Dawley rats were anesthetized with intraperitoneal injection of chloral hydrate (500 mg/kg), the back region was shaved, and then the spinal plate was exposed at L4 to S2 levels. After removing the ligamentous section between L4 and L5, a trapezoidal silicone block (1.00 mm long × 1.3 to 1.2 mm wide × 1.0 mm high) was inserted into the epidural space below the L5 and L6 spinal plates without damaging the dural sac. At this time, a Sham group was a group that was subjected to only posterior […] on the animal without inserting a silicone block.
# (§1) To be used as a peripheral nerve injury animal model, a sciatic nerve injury (SNI) model was prepared (FIG. 1C). Specifically, 200 to 220 g of male adult Sprague-Dawley rats were anesthetized by intraperitoneal injection of chloral hydrate (500 mg/kg), and then three terminal branches (tibial, common peroneal, and sural nerves) of the right sciatic nerve were approached, and the tibia nerve and the peroneal nerve were tightly ligated with 4-0 silk, and neurectomy was performed at a distal 3 mm position of the ligation site. At this time, a Sham group was a group that exposed only the sciatic nerve without damage.
# In order to confirm a neuropathic pain inhibitory effect of YJ102 (Chemical Formula 1), a compound of the present disclosure, in the three nerve injury animal models prepared in Example 1 above, rats having pain on week 3 (SNI model) or week 4 (SCI model and LSS model) after surgery were selected and administered orally (p.o.) at 10 mg/kg or 20 mg/kg of YJ102 dissolved in a solution of DMSO, methyl pyrrolidinone, and water (1 : 1.5 : 1), or intraperitoneally injected (i.p. injection) at 1, 2, or 5 mg/kg of YJ102. In a positive control group, gabapentin or pregabalin dissolved in saline was intraperitoneally injected at a concentration of 5 mg/kg, and in a Vehicle group, the same amount of a solution of DMSO, methyl pyrrolidinone, and water was administered. Thereafter, in order to measure mechanical allodynia, the rats were located at the bottom of a transparent plastic box (10 cm × 10 cm) on top of a wire mesh (3 mm × 3 mm) and subjected to an adaptation period for approximately 20 minutes. Von-Frey filaments were applied to the soles of both paws and used with stiff nylon von-Frey monofilament series ([…], Stoelting, WoodDale, IL, USA; equivalent in grams to 0.4, 0.6, 1.0, 2.0, 4.0, 6.0, 8.0 and 15.0) with logarithmic increases in tactile (mechanical) sensitivity. […]
# inflammatory factors = assay: Inflammatory factor expression in L4-5 spinal cord of SNI model (RT-PCR, Western blot); assay type: in vivo, Sprague-Dawley rats; settings: ipsilateral spinal cord tissue, 4 weeks after nerve injury, RT-PCR and Western blot
# Protocol: as §1
# It was known that when neuropathic pain occurred, the activation of microglia and astrocytes expressed inflammatory factors including cytokines and chemokines to cause excessive excitation of surrounding neurons. Therefore, in order to confirm changes in inflammatory factor expression by YJ102 administration in the SNI animal model 4 weeks after nerve injury, RNA and protein were extracted from L4-5 spinal cord tissue and RT-PCR and Western blot analysis were performed. Specifically, for RT-PCR analysis, RNA was isolated from spinal cord tissue sections using a TRIZOL Reagent (Invitrogen) according to a manual, and 20 µl of the total mixture was prepared by using 1 µg of total RNA, and cDNA was synthesized using MMLV reverse transcriptase (Invitrogen). […]
# TRPM7 = assay: Signaling pathway analysis in SNI model (Western blot): TRPM7 expression; assay type: in vivo, Sprague-Dawley rats; settings: 4 weeks after nerve injury
# Protocol: (§2) To determine through which signaling pathway YJ102 inhibited a neuroinflammatory response, there was analyzed increased expression and activation of histone demethylase JMJD3 and expression changes of factors associated with JAK/STAT3 pathway, mTOR pathway, and TRPM7-mediated pathway, which were known as important regulatory mechanisms and epigenetic regulators mediating the neuroinflammatory response, in the tissues of the SNI animal model 4 weeks after nerve injury.
# JMJD3 = assay: Signaling pathway analysis in SNI model (Western blot): JMJD3 expression and activation; assay type: in vivo, Sprague-Dawley rats; settings: 4 weeks after nerve injury
# Protocol: as §2
# Raw 264.7 = assay: proNGF production in LPS-stimulated macrophage cell line; assay type: cell-based; settings: Raw 264.7 stimulated with 1 µg/ml of LPS; YJ102 treated 30 minutes before LPS
# Protocol: In order to determine whether YJ102 affected the production of proNGF as a ligand of p75, the expression of proNGF in the bladder was confirmed by RT-PCR, Western blot analysis, and immunofluorescence staining. In addition, for further verification, a macrophage cell line Raw 264.7 (Korea Cell Line Bank, Seoul, Korea) was stimulated with 1 µg/ml of LPS, and the effect of YJ102 on the production of proNGF was investigated. At this time, YJ102 was dissolved in DMSO and treated 30 minutes before LPS treatment.
# [2] = all three models (SCI, LSS, SNI), orally 10 mg/kg or 20 mg/kg
smiles,measurement,setting,value
CCc1ccc(N(C(=O)COC)c2nc3cc(Cl)ccc3o2)cc1 [YJ102],duration of the analgesic effect,[1]; [2],≥ 4 h
same,time from which the mechanical allodynia threshold was increased after administration,[1]; [2],30 min
same,analgesic effect compared with gabapentin or pregabalin,"[1]; intraperitoneal, same concentration as gabapentin or pregabalin, SCI, LSS, SNI models",more than twice as high
same,duration of the analgesic effect compared with existing drugs,"[1]; intraperitoneal, versus gabapentin and pregabalin, SCI, LSS, SNI models",more than three times longer
same,expression of inflammatory factors,inflammatory factors,significantly reduced
same,expression of TRPM7,TRPM7,inhibited
same,demethylation activation of H3K27Me3,JMJD3,significantly inhibited
same,expression of JMJD3,JMJD3,significantly inhibited
same,mRNA and protein expression of proNGF,Raw 264.7,significantly inhibited
